# Assay results reported in PMC9511493, “2-(Fluoromethoxy)-4′-(S-methanesulfonimidoyl)-1,1′-biphenyl (UCM-1306), an Orally Bioavailable Positive Allosteric Modulator of the Human Dopamine D1 Receptor for Parkinson’s Disease” (Journal of Medicinal Chemistry, 2022).
# Assay: stability in mouse liver homogenate
# Assay type: in vitro ADME
# Settings: remaining compound after 24 h
# Protocol: HSA binding assay. The assessment of compounds binding to HSA was performed by incubating a fixed concentration of the compound with different concentrations of immobilized HSA, using the TRANSILXL HSA Binding Kit (TMP-0210- 2096, Sovicell). An 8-well unit of the TRANSIL assay plate was used for each compound : six wells contain increasing concentrations of HSA immobilized on silica beads suspended in PBS at pH 7.4, and two wells contain buffer only and serve as references to account for nonspecific binding. The TRANSIL assay plate was thawed for 3 h at rt and centrifuged at 750g for 5 s. […] After this time, the plate was centrifuged at 750gfor 10 min, and 50 μL of the supernatants were transferred for analytical quantification by HPLC-MS using selected ion monitoring (SIM). The binding percentage was calculated from the remaining free compound concentration in the supernatant of each well, using the spreadsheet and algorithms supplied with the kit.
# Stability in mouse serum. […] Supernatants were then analyzed by HPLC-MS using SIM mode, and quantification was estimated by using the peak area integration normalized with an internal standard.
# Stability assay in mouse liver homogenate. Stability of test compounds and reference compound propranolol was determined by incubation in liver homogenates following previously reported procedure. […]
smiles,measurement,value
"CS(=N)(=O)c1ccc(-c2ccccc2OCF)cc1 (stereo not shown) [Compound 26, 2-(Fluoromethoxy)-4′-(S-methanesulfonimidoyl)-1,1′-biphenyl]",liver homogenate stability (%),65%
